Reference: patent US12622968B2, “Formulation for oral delivery of proteins, peptides and small molecules with poor permeability” (R.P. Scherer Technologies, LLC, priority 2019, dated 2026)
Where “and” joins values, the source holds several entries; their conditions need not be identical. Equal entries are not always repeated. Where two headings read alike, the source gives them in different places.

Experiment: Single dose oral capsule pharmacokinetics of BHV-3500 in dogs (plasma LC-MS/MS)
Type: in vivo, beagle dogs
Details: for AUC(0-t): read-out: AUC0-4 hr; for concentration at 0.5 h: 0.5 h post-dose
Experimental: The pharmacokinetics (PK) of BHV-3500 after a single oral capsule of BHV-3500 in dogs were investigated.
After each dose, blood samples (approximately 3 mL from the jugular vein) for determination of plasma levels of BHV-3500 were obtained from of each dog at six time points (pre-dose; 15, 30, and 60 minutes and 2 and 4 hours post-dose. EDTA was used as the anticoagulant. Plasma samples were frozen at approximately −70′C until analyzed.
For the determination of BHV-3500 in plasma, a 50 μL aliquot from each sample was transferred into the appropriate well of a 96-well plate to which 10 μL of 50% acetonitrile (ACN) in water was added, followed by 250 μL of internal standard solution (10 ng/mL BHV-3500-d8 in ACN). After sealing the plate and vortexing for approximately 5 minutes, the plate was centrifuged at 4,000 rpm for 10 minutes at 4±4° C. A portion (100 μL) of the resulting supernatant was transferred to into the appropriate well (containing 300 μL 0.15% formic acid in water) of another 96-well plate. This plate was sealed and its contents mixed prior to instrumental analysis.
Freshly prepared BHV-3500 standard curves and QC samples were analyzed along with the study samples. Instrument calibrators were prepared by adding 10 μL of a stock BHV-3500 solution to 50 μL of blank dog plasma. Blank dog plasma was sourced from BioIVT (Hicksville, NY) and stored frozen at −20° C. Nominal calibrator concentrations ranged from 2.00 to 200 ng/mL. QC samples were prepared at concentrations of 6.00, 50.0 and 150 ng/mL. Calibrators and QC samples were processed for analysis following the extraction procedure described above.
Calibrator, QC and study samples were analyzed under LC-S/MS instrument conditions detailed in Table 7.
Calibration curves were calculated from the linear regression (weighting factor of 1/x2) of the analyte to internal standard peak area ratios versus the analyte concentrations. Concentrations of analyte in the samples were determined using the peak area ratios and the regression parameters of the calibration curves.
Individual animal plasma BHV-3500 concentration data at scheduled (nominal) sampling times were analyzed using the non-compartmental model f r extravascular administration with Phoenix WinNonlin software (Version 8.1; Certara, Princeton, NJ).
Elimination rate constant values (λz) were calculated by log-linear regression on data points of the terminal phase (using Phoenix WinNonlin's Best Fit Lambda Z Calculation Method option) when allowed by the data; the plasma elimination half-life (t1/2) was calculated as ln(2)/λz. Area under the plasma concentration-time curve values from time zero to the concentration at the 4 hour time point (AUC0-4 hr) were calculated by the linear-up/log-down trapezoidal rule.
Nominal dose levels were used for PK analysis. The PK parameters listed below were evaluated (as applicable and when allowed by the data). • Elimination half-life (t1/2) • Time of occurrence of maximum plasma concentration (Tmax) • Maximum plasma concentration (Cmax) • Area under plasma concentration-time curve [0 to the 4 hour time point; AUC0-4hr]

[1] = Group 6, oral capsule, 50 mg BHV-3500 in 25 mg DDM, individual dogs
[2] = female, beagle, dog, plasma, po, 20 mg, Group 3, oral capsule, 20 mg BHV-3500 in 25 mg DDM, average
[3] = female, beagle, dog, plasma, po, 20 mg, Group 3, oral capsule, 20 mg BHV-3500 in 25 mg DDM, individual dogs

## Cc1cc(C[C@@H](NC(=O)N2CCC(c3cc4ccccc4[nH]c3=O)CC2)C(=O)N2CCN(C3CCN(C)CC3)CC2)cc2cn[nH]c12 [BHV-3500, (R)—N-(3-(7-methyl-1H indazol-5-yl)-1-(4-(1-methylpiperidin-4-yl)piperazin-1-yl)-1-oxopropan-2-yl)-4-(2-oxo-1,2 dihydroquinolin-3-yl)piperidine-1-carboxamide]
Group 6, oral capsule, 50 mg BHV-3500 in 25 mg DDM, 2 h post-dose, individual dogs
  BHV-3500 Concentration in Dog Plasma: BQL (BQL = below quantitation limit (2.0 ng/mL))
Group 6, oral capsule, 50 mg BHV-3500 in 25 mg DDM, 4 h post-dose, individual dogs
  BHV-3500 Concentration in Dog Plasma: BQL (BQL = below quantitation limit (2.0 ng/mL))
[1]
  AUC0-4 hr: 10.6 ng·h/mL and 24.0 ng·h/mL
  Cmax: 5.34 ng/mL and 2.42 ng/mL and 12.0 ng/mL
  Tmax: 1 h
female, beagle, dog, plasma, oral, 20 mg, Group 2, 20 mg with Vehicle 6, 2 hours post-dose, read-out: mean plasma exposure
  concentration at 2 h: 22 nM
female, beagle, dog, plasma, oral, 20 mg, Group 3, 20 mg with DDM, 2 hours post-dose, read-out: mean plasma exposure
  concentration at 2 h: 29.5 nM
female, beagle, dog, plasma, oral, 50 mg, Group 5, 50 mg with Vehicle 6, 1 hour post-dose, read-out: mean plasma exposure
  concentration at 1 h: 18 nM
female, beagle, dog, plasma, oral, 50 mg, Group 5, 50 mg with Vehicle 6, 2 hours post-dose, read-out: mean plasma exposure
  concentration at 2 h: 63.3 nM
female, beagle, dog, plasma, oral, 50 mg, Group 6, 50 mg with DDM, 4 hours post-dose, read-out: mean plasma exposure
  concentration at 4 h: 13.5 nM
female, beagle, dog, plasma, po, 20 mg, Group 2, oral capsule, 20 mg BHV-3500 in 900 mg vehicle of Formulation 2 (SEDDS excipients), 1 h post-dose, average, read-out: BHV-3500 Concentration in Dog Plasma
  concentration at 1 h: 2.57 ng/mL
female, beagle, dog, plasma, po, 20 mg, Group 2, oral capsule, 20 mg BHV-3500 in 900 mg vehicle of Formulation 2 (SEDDS excipients), 2 h post-dose, average, read-out: BHV-3500 Concentration in Dog Plasma
  concentration at 2 h: 14.2 ng/mL
female, beagle, dog, plasma, po, 20 mg, Group 2, oral capsule, 20 mg BHV-3500 in 900 mg vehicle of Formulation 2 (SEDDS excipients), 4 h post-dose, average, read-out: BHV-3500 Concentration in Dog Plasma
  concentration at 4 h: 3.09 ng/mL
female, beagle, dog, plasma, po, 20 mg, Group 2, oral capsule, 20 mg BHV-3500 in 900 mg vehicle of Formulation 2 (SEDDS excipients), average
  AUC(0-t): 19.8 ng·h/mL
female, beagle, dog, plasma, po, 20 mg, Group 2, oral capsule, 20 mg BHV-3500 in 900 mg vehicle of Formulation 2 (SEDDS excipients), average, read-out: Cmax
  Cmax: 14.2 ng/mL
female, beagle, dog, plasma, po, 20 mg, Group 2, oral capsule, 20 mg BHV-3500 in 900 mg vehicle of Formulation 2 (SEDDS excipients), individual dogs
  AUC(0-t): 19.8 ng·h/mL
female, beagle, dog, plasma, po, 20 mg, Group 2, oral capsule, 20 mg BHV-3500 in 900 mg vehicle of Formulation 2 (SEDDS excipients), individual dogs, read-out: Tmax
  Tmax: 2 h
female, beagle, dog, plasma, po, 20 mg, Group 2, oral capsule, 20 mg BHV-3500 in 900 mg vehicle of Formulation 2 (SEDDS excipients), median, read-out: Tmax
  Tmax: 2 h
[2]
  concentration at 0.5 h: 14 ng/mL
  AUC(0-t): 48.1 ng·h/mL
[3]
  concentration at 0.5 h: 14 ng/mL
  AUC(0-t): 48.1 ng·h/mL
female, beagle, dog, plasma, po, 20 mg, Group 3, oral capsule, 20 mg BHV-3500 in 25 mg DDM, 1 h post-dose, average, read-out: BHV-3500 Concentration in Dog Plasma
  concentration at 1 h: 3.56 ng/mL
female, beagle, dog, plasma, po, 20 mg, Group 3, oral capsule, 20 mg BHV-3500 in 25 mg DDM, 1 h post-dose, individual dogs, read-out: BHV-3500 Concentration in Dog Plasma
  concentration at 1 h: 3.56 ng/mL
female, beagle, dog, plasma, po, 20 mg, Group 3, oral capsule, 20 mg BHV-3500 in 25 mg DDM, 2 h post-dose, average, read-out: BHV-3500 Concentration in Dog Plasma
  concentration at 2 h: 18.9 ng/mL
female, beagle, dog, plasma, po, 20 mg, Group 3, oral capsule, 20 mg BHV-3500 in 25 mg DDM, 4 h post-dose, average, read-out: BHV-3500 Concentration in Dog Plasma
  concentration at 4 h: 2.18 ng/mL
female, beagle, dog, plasma, po, 20 mg, Group 3, oral capsule, 20 mg BHV-3500 in 25 mg DDM, 4 h post-dose, individual dogs, read-out: BHV-3500 Concentration in Dog Plasma
  concentration at 4 h: 2.18 ng/mL
female, beagle, dog, plasma, po, 20 mg, Group 3, oral capsule, 20 mg BHV-3500 in 25 mg DDM, average, read-out: Cmax
  Cmax: 17.3 ng/mL
